From ChEMBL document CHEMBL1687769, “High cefepime plasma concentrations and neurological toxicity in febrile neutropenic patients with mild impairment of renal function” (Antimicrob Agents Chemother, 2010)

Columns and labels:
[1] = Cmin in febrile neutropenic patient with GFR of <40 ml/min at 2 g administered as 30 mins infusion every 8 hrs measured after 4 days by HPLC analysis; format: ADME, organism-based; conditions: human, in vivo, iv, read-out: Cmin
[2] = Cmin in febrile neutropenic patient with neurological disorder at 2 g administered as 30 mins infusion every 8 hrs measured after 4 days by HPLC analysis; format: ADME, organism-based; conditions: human, in vivo, iv, read-out: Cmin
Homo sapiens [3] = assay: Neurotoxicity in febrile neutropenic patient assessed as confusion at 2 g administered as 30 mins infusion every 8 hrs; format: toxicity, organism-based; conditions: in vivo, iv
Homo sapiens [4] = assay: Neurotoxicity in febrile neutropenic patient assessed as myoclonia at 2 g administered as 30 mins infusion every 8 hrs; format: toxicity, organism-based; conditions: in vivo, iv
Homo sapiens [5] = assay: Neurotoxicity in febrile neutropenic patient assessed as hallucinations at 2 g administered as 30 mins infusion every 8 hrs; format: toxicity, organism-based; conditions: in vivo, iv

concentration at 4 days [1]: 11400 ng/mL
concentration at 4 days [2]: 28000 ng/mL
SMILES: CO/N=C(\C(=O)N[C@@H]1C(=O)N2C(C(=O)[O-])=C(C[N+]3(C)CCCC3)CS[C@H]12)c1csc(N)n1 [CEFEPIME]
Activity (Homo sapiens [3]): Toxic
Activity (Homo sapiens [4]): Toxic
Activity (Homo sapiens [5]): Toxic
